Data on 52 compounds can be found in patent US20230009608A1, “GRK2 INHIBITORS AND USES THEREOF” (Cygnal Therapeutics, Inc., priority 2020, published 2023).

Where two headings read alike, the source gives them in different places.

The target of one test is T1, GRK2 (Homo sapiens, UniProt P25098).
T1 construct: purchased SignalChem A14-10G
T1 sequence (P25098 1-689): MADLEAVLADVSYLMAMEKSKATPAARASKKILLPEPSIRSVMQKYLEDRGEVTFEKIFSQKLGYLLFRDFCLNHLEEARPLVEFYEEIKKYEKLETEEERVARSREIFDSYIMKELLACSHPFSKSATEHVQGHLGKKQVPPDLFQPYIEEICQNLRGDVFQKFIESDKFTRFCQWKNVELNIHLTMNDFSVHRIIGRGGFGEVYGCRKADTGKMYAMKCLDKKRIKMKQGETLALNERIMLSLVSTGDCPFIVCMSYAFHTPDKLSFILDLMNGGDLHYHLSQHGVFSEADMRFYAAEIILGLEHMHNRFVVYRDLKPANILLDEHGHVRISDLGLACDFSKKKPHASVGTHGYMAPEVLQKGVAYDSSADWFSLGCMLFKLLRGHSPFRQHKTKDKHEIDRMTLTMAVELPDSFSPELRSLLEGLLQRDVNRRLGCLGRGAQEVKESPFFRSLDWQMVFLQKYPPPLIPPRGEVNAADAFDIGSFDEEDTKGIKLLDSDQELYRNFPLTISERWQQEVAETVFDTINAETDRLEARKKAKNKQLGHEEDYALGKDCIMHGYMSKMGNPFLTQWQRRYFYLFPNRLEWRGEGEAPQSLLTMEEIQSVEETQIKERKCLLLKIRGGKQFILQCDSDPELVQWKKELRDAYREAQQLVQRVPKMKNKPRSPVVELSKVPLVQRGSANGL
Kind of test: GRK2 Inhibition Assay (TR-FRET, Example 7). It counts as biochemical. Here is the method: Enzyme GRK2 (1 nM final concentration) was diluted in 25 mMv HEPES, 10 mM MgCl2, 2 mM DTT, 0.01% Tween-20, and 1 mM EGTA. Then the GRK2 mixture was added into ProxiPlate-384 white plate and pre-incubated for 30 min with test compounds at room temperature. ATP (7 μM final concentration) and Ulight TopoIIα (50 nM final concentration) were added into the assay plate to initiate the reaction and the mixture was incubated at room temperature for 90 min. Then, Eu anti-TopoIIα (0.12 nM final concentration), BSA (0.01% final concentration), and EDTA (11 mMv final concentration) in LANCE assay buffer were added into each well. After 60 min incubation time at room temperature, TR-FRET signal was measured by EnVision plate reader.

The test system of test [1] is PAXF1657 control empty vector cell line. Kind of test: 7-day proliferation assay, PAXF1657 control empty vector cell line (Example 9). It counts as cell-based. The following applies: 168 h; Cell Line: PAXF1657 empty vector (EV) cell line; 7-day; read-out: C: 7-day proliferation assay: IC50 GeoMean. A digest of the protocol: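 Isogenic PAXF1657 pairs differing in GRK2 level (stable cDNA overexpression or CRISPR knockout, each with matched control) are seeded and allowed to attach overnight. Inhibitors span 30 μM-0.0002 μM in 0.3% DMSO for 3 plus 4 days at 37° C, 5% CO2, with a medium change between.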

Where [2] appears, read: Enzyme Assay B, TR-FRET (Example 7), read-out: B: Enzymatic GRK2: IC50 (nM) (Example 7).
The mark [3] stands for this setting: TR-FRET GRK2 enzyme assay, read-out: B: Enzymatic GRK2: IC50 (nM) (Example 7).

For `CCCn1c(CNc2cncc(C(=O)NCc3ccccc3C(F)(F)F)c2)nnc1-c1ccncn1`, the IC50 at GRK2 (setting [2]) is 30 nM; in test [1], greater than 30000 nM.

Turning to `O=C(NCc1cccc(OS(=O)(=O)F)c1)c1cccc(NCc2nnc(-c3ccncc3)[nH]2)c1`, the IC50 was 26 nM against GRK2 and greater than 30000 nM in test [1].

Take `O=C(NCc1ccccc1OS(=O)(=O)F)c1cccc(NCc2nnc(-c3ccncc3)[nH]2)c1`: the figures for the IC50 (against GRK2; in test [1]) were 12 nM and 7640 nM, respectively.

As for `O=C(NCCc1ccccc1OS(=O)(=O)F)c1cccc(NCc2nnc(-c3ccncc3)[nH]2)c1`, the results for the IC50 (against GRK2; in test [1]) were 73 nM and 13100 nM, respectively.

`O=C(NCc1ccc(OS(=O)(=O)F)cc1)c1cccc(NCc2nnc(-c3ccncc3)[nH]2)c1`: the IC50 against GRK2 is 20 nM; in test [1], greater than 30000 nM.

Take `COc1ncccc1CNC(=O)c1cccc(NCc2nnc(-c3ccncc3)n2C)c1`: the IC50 on GRK2 (setting [2]) worked out at 15 nM; in test [1], 810 nM.

In the case of `O=C(NCc1cccc2c1OCC2)c1cccc(NCc2nnc(-c3ccncc3)[nH]2)c1`, the IC50 at GRK2 (setting [2]) is 2.9 nM; in test [1] it was greater than 30000 nM.

For `O=C(NCc1cccc(F)c1)c1cccc(NCc2nnc(-c3ccncc3)[nH]2)c1`, the values for the IC50 (on GRK2 (setting [2]); in test [1]) were 6.1 nM and 14500 nM, respectively.

On to `O=C(N[C@H]1CCOc2ccccc21)c1cccc(NCc2nnc(-c3ccncc3)[nH]2)c1`, for which the IC50 at GRK2 (setting [2]) is 2.1 nM; in test [1], greater than 1760 nM.

In the case of `O=C(NCc1cccnc1C(F)(F)F)c1cccc(NCc2nnc(-c3ccncc3)[nH]2)c1`, the IC50 on GRK2 (setting [2]) is 13 nM; in test [1], greater than 30000 nM.

`COc1ccc(CNC(=O)c2cccc(NCc3nnc(-c4ccncc4)[nH]3)c2)c(F)c1`: the IC50 is 15 nM on GRK2 (setting [2]) and 18800 nM in test [1].

On to `COc1cccc(OC)c1CNC(=O)c1cccc(NCc2nnc(-c3ccncc3)[nH]2)c1`, for which the IC50 is 1.4 nM on GRK2 (setting [2]) and 981 nM in test [1].

As for `CCCn1c(CNc2cccc(C(=O)NCc3cccc4c3OCC4)c2)nnc1-c1ccncn1`, the values for the IC50 (on GRK2 (setting [2]); in test [1]) were 2 nM and greater than 30000 nM, respectively.

Consider `CCCn1c(CNc2cccc(C(=O)NCc3cccc(F)c3)c2)nnc1-c1ccncn1`, for which the IC50 at GRK2 (setting [2]) is 5.3 nM; in test [1], 19200 nM.

Turning to `CCCn1c(CNc2cccc(C(=O)N[C@H]3CCOc4ccccc43)c2)nnc1-c1ccncn1`, the figures for the IC50 (on GRK2 (setting [2]); in test [1]) were 2.3 nM and greater than 30000 nM, respectively.

With `O=C(NCc1ccccc1OS(=O)(=O)F)c1cccc(NCc2nnc(-c3ccncc3)n2CCCO)c1`, the results for the IC50 (against GRK2; in test [1]) were 17 nM and greater than 30000 nM, respectively.

With `O=C(NCc1cccc(OS(=O)(=O)F)c1)c1cccc(NCc2nnc(-c3ccncc3)n2CCCO)c1`, the IC50 against GRK2 is 50 nM; in test [1] it was greater than 30000 nM.

With `Cn1c(CNc2cccc(C(=O)N[C@H]3CCOc4cc(Cl)ccc43)c2)nnc1-c1ccncn1`, the IC50 at GRK2 (setting [2]) was 18 nM; in test [1], greater than 29400 nM.

`Cc1ccc2c(c1)[C@H](NC(=O)c1cccc(NCc3nnc(-c4ccncn4)n3C)c1)CC(C)(C)O2`: the IC50 at GRK2 (setting [2]) was 48 nM; in test [1], greater than 30000 nM.

`Cc1ccc2c(c1)[C@@H](NC(=O)c1cccc(NCc3nnc(-c4ccncn4)n3C)c1)CC(C)(C)O2`: the IC50 was 240 nM at GRK2 (setting [2]) and greater than 30000 nM in test [1].

As to `Cn1c(CNc2cccc(C(=O)N[C@@H]3CCOc4ccc(Br)cc43)c2)nnc1-c1ccncn1`, the figures for the IC50 (at GRK2 (setting [2]); in test [1]) were 510 nM and greater than 30000 nM, respectively.

As for `Cn1c(CNc2cccc(C(=O)N[C@H]3CCOc4ccc(Br)cc43)c2)nnc1-c1ccncn1`, the results for the IC50 (at GRK2 (setting [2]); in test [1]) were 2.6 nM and 42.6 nM, respectively.

As for `Cn1c(CNc2cccc(C(=O)N[C@@H]3CCOc4ccc(Cl)cc43)c2)nnc1-c1ccncn1`, the values for the IC50 (at GRK2 (setting [2]); in test [1]) were 2.9 nM and 33.9 nM, respectively.

For `Cn1c(CNc2cccc(C(=O)N[C@H]3CCOc4ccc(Cl)cc43)c2)nnc1-c1ccncn1`, the results for the IC50 (at GRK2 (setting [2]); in test [1]) were 120 nM and greater than 30000 nM, respectively.

Turning to `Cn1c(CNc2cccc(C(=O)N[C@@H]3CCOc4c3ccc(F)c4F)c2)nnc1-c1ccncn1`, the IC50 was 3.3 nM at GRK2 (setting [2]) and 178 nM in test [1].

As to `Cn1c(CNc2cccc(C(=O)N[C@H]3CCOc4c3ccc(F)c4F)c2)nnc1-c1ccncn1`, the IC50 on GRK2 (setting [2]) is 1500 nM; in test [1] it was greater than 30000 nM.

For `Cn1c(CNc2cccc(C(=O)N[C@@H]3CCOc4cc(F)ccc43)c2)nnc1-c1ccncn1`, the IC50 at GRK2 (setting [2]) was determined as 1900 nM; in test [1], 168 nM.

For the compound `Cn1c(CNc2cccc(C(=O)N[C@H]3CCOc4cc(F)ccc43)c2)nnc1-c1ccncn1`, the IC50 was 6.4 nM on GRK2 (setting [2]) and greater than 30000 nM in test [1].

Regarding `Cn1c(CNc2cccc(C(=O)N[C@@H]3CCOc4ccc(F)cc43)c2)nnc1-c1ccncn1`, the IC50 on GRK2 (setting [2]) amounted to 2 nM; in test [1] it was 96.2 nM.

Regarding `Cn1c(CNc2cccc(C(=O)N[C@H]3CCOc4ccc(F)cc43)c2)nnc1-c1ccncn1`, the IC50 on GRK2 (setting [2]) was 24 nM; in test [1], greater than 30000 nM.

Take `Cn1c(CNc2cccc(C(=O)N[C@@H]3CC(C)(C)Oc4ccccc43)c2)nnc1-c1ccncn1`: the results for the IC50 (on GRK2 (setting [2]); in test [1]) were 45 nM and 9090 nM, respectively.

Take `Cn1c(CNc2cccc(C(=O)N[C@H]3CC(C)(C)Oc4ccccc43)c2)nnc1-c1ccncn1`: the IC50 at GRK2 (setting [2]) is 30 nM; in test [1], greater than 30000 nM.

With `Cn1c(CNc2cccc(C(=O)N[C@@H]3CCOc4c3cccc4C(F)(F)F)c2)nnc1-c1ccncn1`, the values for the IC50 (at GRK2 (setting [2]); in test [1]) were 3.8 nM and greater than 972 nM, respectively.

Regarding `Cn1c(CNc2cccc(C(=O)N[C@H]3CCOc4c3cccc4C(F)(F)F)c2)nnc1-c1ccncn1`, the IC50 was 9.7 nM on GRK2 (setting [2]) and greater than 30000 nM in test [1].

Take `Cn1c(CNc2cccc(C(=O)N[C@@H]3CCOc4cc(C(F)(F)F)ccc43)c2)nnc1-c1ccncn1`: the IC50 at GRK2 (setting [2]) came to 56 nM; in test [1], 93.2 nM.

With `Cn1c(CNc2cccc(C(=O)N[C@H]3COc4c(Cl)cccc43)c2)nnc1-c1ccncn1`, the IC50 at GRK2 (setting [3]) worked out at 7.8 nM.

With `Cn1c(CNc2cccc(C(=O)N[C@@H]3COc4c(Cl)cccc43)c2)nnc1-c1ccncn1`, the IC50 at GRK2 (setting [3]) is 28 nM.

Regarding `Cn1c(CNc2cccc(C(=O)N[C@H](C#N)c3c(F)cccc3Cl)c2)nnc1-c1ccncn1`, at GRK2 (setting [3]), the IC50 is 5.7 nM.

For `Cn1c(CNc2cccc(C(=O)N[C@@H](C#N)c3c(F)cccc3Cl)c2)nnc1-c1ccncn1`, at GRK2 (setting [3]), the IC50 stood at 5.1 nM.

In the case of `Cn1c(CNc2cccc(C(=O)N[C@@H](C#N)c3ccccc3Br)c2)nnc1-c1ccncn1`, the IC50 at GRK2 (setting [3]) turned out to be 4.1 nM.

For `Cn1c(CNc2cccc(C(=O)N[C@H](C#N)c3ccccc3Br)c2)nnc1-c1ccncn1`, the IC50 at GRK2 (setting [3]) turned out to be 4.5 nM.

With `Cn1c(CNc2cccc(C(=O)N[C@@H](C#N)c3ccccc3C(F)(F)F)c2)nnc1-c1ccncn1`, the IC50 at GRK2 (setting [3]) was determined as 3.5 nM.

Regarding `COc1ccc([C@H](C#N)NC(=O)c2cccc(NCc3nnc(-c4ccncn4)n3C)c2)c(OC)c1`, at GRK2 (setting [3]), the IC50 turned out to be 68 nM.

For `COc1ccc([C@@H](C#N)NC(=O)c2cccc(NCc3nnc(-c4ccncn4)n3C)c2)c(OC)c1`, the IC50 on GRK2 (setting [3]) was 7.8 nM.

For `COc1ccccc1[C@H](NC(=O)c1cccc(NCc2nnc(-c3ccncn3)n2C)c1)c1nccn1C`, the IC50 at GRK2 (setting [3]) was 100 nM.

For the compound `CCc1cnccc1CNC(=O)c1cccc(NCc2nnc(-c3ccncn3)n2[C@H]2CCC[C@@H](NC)C2)c1`, on GRK2 (setting [3]), the IC50 turned out to be 3900 nM.

On to `CCc1cnccc1CNC(=O)c1cccc(NCc2nnc(-c3ccncn3)n2[C@@H]2CCC[C@@H](NC)C2)c1`, for which the IC50 at GRK2 (setting [3]) stood at 1000 nM.

Regarding `CCc1cnccc1CNC(=O)c1cccc(NCc2nnc(-c3ccncn3)n2[C@H]2CC[C@@H](NC)C2)c1`, on GRK2 (setting [3]), the IC50 came to 190 nM.

On to `CCc1cnccc1CNC(=O)c1cccc(NCc2nnc(-c3ccncn3)n2[C@H]2CC[C@H](NC)C2)c1`, for which the IC50 at GRK2 (setting [3]) was 920 nM.

Take `CCc1cnccc1CNC(=O)c1cccc(NCc2nnc(-c3ccncn3)n2[C@@H]2CC[C@@H](NC)C2)c1`: the IC50 on GRK2 (setting [3]) is 230 nM.

Take `CCc1cnccc1CNC(=O)c1cccc(NCc2nnc(-c3ccncn3)n2[C@@H]2CC[C@H](NC)C2)c1`: the IC50 on GRK2 (setting [3]) worked out at 110 nM.

As to `Cn1c(CNc2cccc(C(=O)N[C@H]3COc4ccccc43)c2)nnc1-c1ccncn1` [drawing 850], the IC50 at GRK2 (setting [3]) turned out to be 3.4 nM.
